# Data taken from patent publication US20060167109A1, “Methods of reducing rhinovirus contagion and related compositions” (priority 2002, published 2006).
# Legend:
# [1] = tested on: HRV serotype 36; assay: HRV cytopathic effect assay; format: cell-based; conditions: Human rhinovirus sp.
# Procedure: (§1) For sensitivity testing to pleconaril, the appropriate cells were seeded into 96 well plates at a concentration of 4×10^4/well. After an overnight incubation at 37° C., the medium was removed and the cells were infected with 150 μL of a dilution of virus previously titrated to give ≧85% lysis of the monolayer after 3 days of incubation. The plates were incubated for 1 hour at the appropriate temperature and then overlaid with 50 μL of medium containing serial 2-fold dilutions of pleconaril in 2% DMSO. The final DMSO concentration in the assay was always 0.5%. No virus and no pleconaril controls were included on each plate. All drug concentrations were run in quadruplicate. The plates were then incubated for 3 days at the appropriate temperature followed by processing as described above.
# [2] = tested on: HRV serotype 84; assay: HRV cytopathic effect assay; format: cell-based; conditions: Human rhinovirus sp.
# Procedure: as §1
# [3] = tested on: HRV serotype 87; assay: HRV cytopathic effect assay; format: cell-based; conditions: Human rhinovirus sp.
# Procedure: as §1
# [4] = tested on: HRV serotype 64; assay: HRV cytopathic effect assay; format: cell-based; conditions: Human rhinovirus sp.
# Procedure: as §1
# [5] = tested on: HRV serotype 100; assay: HRV cytopathic effect assay; format: cell-based; conditions: Human rhinovirus sp.
# Procedure: as §1
# [6] = tested on: HRV serotype 18; assay: HRV cytopathic effect assay; format: cell-based; conditions: Human rhinovirus sp.
# Procedure: as §1
# [7] = tested on: HRV serotype 6; assay: HRV cytopathic effect assay; format: cell-based; conditions: Human rhinovirus sp.
# Procedure: as §1
# [8] = tested on: HRV serotype 76; assay: HRV cytopathic effect assay; format: cell-based; conditions: Human rhinovirus sp.
# Procedure: as §1
# [9] = tested on: HRV serotype 54; assay: HRV cytopathic effect assay; format: cell-based; conditions: Human rhinovirus sp.
# Procedure: as §1
# [10] = tested on: HRV serotype 44; assay: HRV cytopathic effect assay; format: cell-based; conditions: Human rhinovirus sp.
# Procedure: as §1
# [11] = tested on: HRV serotype 30; assay: HRV cytopathic effect assay; format: cell-based; conditions: Human rhinovirus sp.
# Procedure: as §1
# [12] = tested on: HRV serotype 7; assay: HRV cytopathic effect assay; format: cell-based; conditions: Human rhinovirus sp.
# Procedure: as §1
# [13] = tested on: HRV serotype 13; assay: HRV cytopathic effect assay; format: cell-based; conditions: Human rhinovirus sp.
# Procedure: as §1
# [14] = tested on: HRV serotype 24; assay: HRV cytopathic effect assay; format: cell-based; conditions: Human rhinovirus sp.
# Procedure: as §1
# [15] = tested on: HRV serotype 56; assay: HRV cytopathic effect assay; format: cell-based; conditions: Human rhinovirus sp.
# Procedure: as §1
# [16] = tested on: HRV serotype 26; assay: HRV cytopathic effect assay; format: cell-based; conditions: Human rhinovirus sp.
# Procedure: as §1
# [17] = tested on: HRV serotype 72; assay: HRV cytopathic effect assay; format: cell-based; conditions: Human rhinovirus sp.
# Procedure: as §1
# [18] = tested on: HRV serotype 1A; assay: HRV cytopathic effect assay; format: cell-based; conditions: Human rhinovirus sp.
# Procedure: as §1
# [19] = tested on: HRV serotype 28; assay: HRV cytopathic effect assay; format: cell-based; conditions: Human rhinovirus sp.
# Procedure: as §1
# [20] = tested on: HRV serotype 68; assay: HRV cytopathic effect assay; format: cell-based; conditions: Human rhinovirus sp.
# Procedure: as §1
# [21] = tested on: HRV serotype 46; assay: HRV cytopathic effect assay; format: cell-based; conditions: Human rhinovirus sp.
# Procedure: as §1
# [22] = tested on: HRV serotype 1B; assay: HRV cytopathic effect assay; format: cell-based; conditions: Human rhinovirus sp.
# Procedure: as §1
# [23] = tested on: HRV serotype 37; assay: HRV cytopathic effect assay; format: cell-based; conditions: Human rhinovirus sp.
# Procedure: as §1
# [24] = tested on: HRV serotype 48; assay: HRV cytopathic effect assay; format: cell-based; conditions: Human rhinovirus sp.
# Procedure: as §1
# [25] = tested on: HRV serotype 67; assay: HRV cytopathic effect assay; format: cell-based; conditions: Human rhinovirus sp.
# Procedure: as §1
# [26] = tested on: HRV serotype 47; assay: HRV cytopathic effect assay; format: cell-based; conditions: Human rhinovirus sp.
# Procedure: as §1
# [27] = tested on: HRV serotype 83; assay: HRV cytopathic effect assay; format: cell-based; conditions: Human rhinovirus sp.
# Procedure: as §1
# [28] = tested on: HRV serotype 34; assay: HRV cytopathic effect assay; format: cell-based; conditions: Human rhinovirus sp.
# Procedure: as §1
# [29] = tested on: HRV serotype 65; assay: HRV cytopathic effect assay; format: cell-based; conditions: Human rhinovirus sp.
# Procedure: as §1
# [30] = tested on: HRV serotype 42; assay: HRV cytopathic effect assay; format: cell-based; conditions: Human rhinovirus sp.
# Procedure: as §1
# [31] = tested on: HRV serotype 60; assay: HRV cytopathic effect assay; format: cell-based; conditions: Human rhinovirus sp.
# Procedure: as §1
# [32] = tested on: HRV serotype 10; assay: HRV cytopathic effect assay; format: cell-based; conditions: Human rhinovirus sp.
# Procedure: as §1
# [33] = tested on: HRV serotype 52; assay: HRV cytopathic effect assay; format: cell-based; conditions: Human rhinovirus sp.
# Procedure: as §1
# [34] = tested on: HRV serotype 81; assay: HRV cytopathic effect assay; format: cell-based; conditions: Human rhinovirus sp.
# Procedure: as §1
# [35] = Rat tissue distribution studies; format: in vivo; conditions: estimated
# Procedure: A 400 mg dose of pleconaril maintains antiviral concentrations at or above the concentration that inhibits 90% of the protoype HRV serotypes (90% Minimal Inhibitory Concentration or mic90) for a significant portion of the dosing interval after the first dose of pleconaril. A nasal tissue to plasma concentration ratio of five was estimated for pleconaril from rat tissue distribution studies.
smiles,measurement,setting,value
"Cc1cc(CCCOc2c(C)cc(-c3noc(C(F)(F)F)n3)cc2C)on1 [pleconaril, 3-[3,5-dimethyl-4-[3-(3-methyl-5-isoxazolyl)propoxy]phenyl]-5-(trifluoromethyl)-1,2,4-oxadiazole]",IC50,[1],110 ± 20 nM
same,IC50,[2],> 12500 nM
same,IC50,[3],> 12500 nM
same,IC50,[4],320 ± 240 nM
same,IC50,[5],30 ± 10 nM
same,IC50,[6],240 ± 100 nM
same,IC50,[7],60 ± 20 nM
same,IC50,[8],240 ± 290 nM
same,IC50,[9],460 ± 110 nM
same,IC50,[10],110 ± 70 nM
same,IC50,[11],230 ± 80 nM
same,IC50,[12],50 ± 10 nM
same,IC50,[13],580 ± 130 nM
same,IC50,[14],210 ± 20 nM
same,IC50,[15],110 ± 60 nM
same,IC50,[16],1600 ± 600 nM
same,IC50,[17],940 ± 300 nM
same,IC50,"[18]; HRV1A, Table 2, mean of at least two independent determinations",430 ± 170 nM
same,IC50,[18]; serotype 1A,430 ± 170 nM
same,IC50,[19],200 ± 70 nM
same,IC50,[20],30 ± 20 nM
same,IC50,[21],160 ± 50 nM
same,IC50,[22],160 ± 30 nM
same,IC50,[23],60 ± 20 nM
same,IC50,[24],1800 ± 630 nM
same,IC50,[25],250 ± 110 nM
same,IC50,[26],10 nM
same,IC50,[27],20 ± 10 nM
same,IC50,[28],90 ± 20 nM
same,IC50,[29],330 ± 100 nM
same,IC50,[30],> 12500 nM
same,IC50,[31],480 ± 140 nM
same,IC50,[32],130 ± 50 nM
same,IC50,[33],2490 ± 1210 nM
same,IC50,[34],300 ± 70 nM
same,nasal tissue to plasma concentration ratio,[35],five
